This is an account of results in ChEMBL document CHEMBL3217565, “Conformational effects on potency of thioimidazoles and dihydrothiazolines” (Medchemcomm, 2011).

Experiment [1] addresses T1, Mitogen-activated protein kinase 14 (Homo sapiens, UniProt Q16539). As to the kind of experiment: Ratio of SB203580 IC50 to compound IC50 for p38-alpha MAPK (unknown origin).
For experiment [2], the target named is T1, Mitogen-activated protein kinase 14. As to the kind of experiment: Inhibition of p38-alpha MAPK (unknown origin) after 3 hrs.

Broadly, the IC50 is the concentration needed to halve the response being measured. Lower therefore signals higher potency.

T1 sequence (Q16539 whole entry): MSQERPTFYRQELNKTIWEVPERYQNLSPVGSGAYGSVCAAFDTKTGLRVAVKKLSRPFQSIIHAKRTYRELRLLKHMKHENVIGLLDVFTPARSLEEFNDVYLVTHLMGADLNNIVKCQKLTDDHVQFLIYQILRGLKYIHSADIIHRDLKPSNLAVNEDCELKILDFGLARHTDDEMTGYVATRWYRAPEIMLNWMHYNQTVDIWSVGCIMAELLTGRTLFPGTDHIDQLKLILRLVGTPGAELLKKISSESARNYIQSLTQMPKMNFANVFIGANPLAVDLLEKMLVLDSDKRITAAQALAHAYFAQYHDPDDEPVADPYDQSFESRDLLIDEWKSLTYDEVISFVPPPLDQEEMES

Take `CSc1nc(-c2ccc(F)cc2)c(-c2ccnc(NC(=O)C3CC3c3ccccc3)c2)n1C` (stereo not drawn): the Ratio IC50 in experiment [1] came to 0.22. The compound further registered a 50% inhibitory concentration (IC50) in experiment [2] of 186 nM.
On the same counts, the results for `CSc1nc(-c2ccc(F)cc2)c(-c2ccnc(NC(=O)c3ccccc3)c2)[nH]1` are 1.36 and 19 nM.
For `CSc1nc(-c2ccc(F)cc2)c(-c2ccnc(NC(=O)c3ccc(F)cc3)c2)n1C`, the Ratio IC50 in experiment [1] worked out at 0.16. The compound also had an IC50 in experiment [2] of 396 nM.
Take `CSc1nc(-c2ccc(F)cc2)c(-c2ccnc(NC(=O)c3ccco3)c2)[nH]1`: the Ratio IC50 in experiment [1] was 1.46.
As for `CSc1nc(-c2ccc(F)cc2)c(-c2ccnc(NC(=O)Cc3ccc(F)cc3)c2)n1C`, the Ratio IC50 in experiment [1] was determined as 0.24.
As to `O=C(Nc1cc(-c2c(-c3ccc(F)cc3)nc3n2CCS3)ccn1)c1ccco1`, the Ratio IC50 in experiment [1] was determined as 0.63. In experiment [2], this compound yielded a half-inhibitory concentration (IC50) of 140 nM.
With `CSc1nc(-c2ccc(F)cc2)c(-c2ccnc(NC(=O)c3cc4ccccc4o3)c2)n1C`, in experiment [1], the Ratio IC50 stood at 0.1. Besides, the IC50 in experiment [2] amounted to 430 nM.
On to `CSc1nc(-c2ccc(F)cc2)c(-c2ccnc(NC(=O)c3ccco3)c2)n1C`, for which the Ratio IC50 in experiment [1] amounted to 0.35. The same compound gave an IC50 in experiment [2] of 173 nM.
For `O=C(Nc1cc(-c2c(-c3ccc(F)cc3)nc3n2CCS3)ccn1)c1ccc(F)cc1`, in that order: 1.44 and 36 nM.
In the case of `Cc1ccc(C(=O)Nc2cc(-c3c(-c4ccc(F)cc4)nc4n3CCS4)ccn2)cc1F`, the Ratio IC50 in experiment [1] is 0.96. This compound had an IC50 in experiment [2] of 29 nM.
For the compound `CSc1nc(-c2ccc(F)cc2)c(-c2ccnc(NC(=O)C3CC3c3ccccc3)c2)[nH]1` (stereo not drawn), the Ratio IC50 in experiment [1] was 1.85. The same compound showed an IC50 in experiment [2] of 20 nM.
Consider `CSc1nc(-c2ccc(F)cc2)c(-c2ccnc(NC(=O)c3ccccc3)c2)n1C`, for which the Ratio IC50 in experiment [1] was 0.18. For the same compound, in experiment [2], the 50% inhibitory concentration (IC50) came out at 337 nM.
As for `CSc1nc(-c2ccc(F)cc2)c(-c2ccnc(NC(=O)c3ccc(C)c(F)c3)c2)[nH]1`, the Ratio IC50 in experiment [1] came out at 1.93.
Take `O=C(Cc1ccccc1)Nc1cc(-c2c(-c3ccc(F)cc3)nc3n2CCS3)ccn1`: in experiment [1], the Ratio IC50 came to 0.97. Besides, in experiment [2], the half-maximal inhibitory concentration (IC50) stood at 46 nM.
For `CSc1nc(-c2ccc(F)cc2)c(-c2ccnc(NC(=O)c3ccc(C)c(F)c3)c2)n1C`, in that order: 0.1 and 411 nM.
As for `CSc1nc(-c2ccc(F)cc2)c(-c2ccnc(NC(=O)c3cc4ccccc4o3)c2)[nH]1`, the Ratio IC50 in experiment [1] was determined as 0.7.
For the compound `O=C(Nc1cc(-c2c(-c3ccc(F)cc3)nc3n2CCS3)ccn1)c1cc2ccccc2o1`, in experiment [1], the Ratio IC50 is 0.77. This compound also yielded a concentration for half-maximal inhibition (IC50) in experiment [2] of 115 nM.
`O=C(Nc1cc(-c2c(-c3ccc(F)cc3)nc3n2CCS3)ccn1)C1CC1c1ccccc1` (stereo not drawn): in experiment [1], the Ratio IC50 was 1.4. The compound also displayed a 50% inhibitory concentration (IC50) in experiment [2] of 20 nM.
Take `O=C(Cc1ccc(F)cc1)Nc1cc(-c2c(-c3ccc(F)cc3)nc3n2CCS3)ccn1`: the Ratio IC50 in experiment [1] is 1.93. Moreover, in experiment [2], the IC50 came to 46 nM.
As to `CSc1nc(-c2ccc(F)cc2)c(-c2ccnc(NC(=O)c3ccc(F)cc3)c2)[nH]1`, the Ratio IC50 in experiment [1] was 0.61. The same compound yielded an IC50 in experiment [2] of 44 nM.
Regarding `CSc1nc(-c2ccc(F)cc2)c(-c2ccnc(NC(=O)Cc3ccccc3)c2)n1C`, the Ratio IC50 in experiment [1] was 0.05. This compound displayed an IC50 in experiment [2] of 498 nM.
For `O=C(Nc1cc(-c2c(-c3ccc(F)cc3)nc3n2CCS3)ccn1)c1ccccc1`, in that order: 0.89 and 83 nM.
For the compound `CSc1nc(-c2ccc(F)cc2)c(-c2ccnc(NC(=O)Cc3ccccc3)c2)[nH]1`, the Ratio IC50 in experiment [1] was 1.23. This compound also gave a half-maximal inhibitory concentration (IC50) in experiment [2] of 22 nM.
With `CSc1nc(-c2ccc(F)cc2)c(-c2ccnc(NC(=O)Cc3ccc(F)cc3)c2)[nH]1`, the Ratio IC50 in experiment [1] stood at 3.55.
